Literature values in patent US20240398793A1, “Methods of Treating Lymphedema” (Celltaxis, LLC, priority 2021, published 2024).
“Also recorded” adds a separate entry of the source.

Assays:
LTA4H aminopeptidase [1] = target: T1, LTA4H aminopeptidase (Homo sapiens (Human), UniProt P09960); settings: read-out: Aminopeptidase IC50 ± SEM; cited from earlier work
LTA4H epoxide hydrolase = LTA4H epoxide hydrolase (Homo sapiens (Human), UniProt P09960); settings: read-out: EH (Epoxide Hydrolase) IC50 ± SEM; cited from earlier work
Chain of LTA4H epoxide hydrolase (P09960 whole entry): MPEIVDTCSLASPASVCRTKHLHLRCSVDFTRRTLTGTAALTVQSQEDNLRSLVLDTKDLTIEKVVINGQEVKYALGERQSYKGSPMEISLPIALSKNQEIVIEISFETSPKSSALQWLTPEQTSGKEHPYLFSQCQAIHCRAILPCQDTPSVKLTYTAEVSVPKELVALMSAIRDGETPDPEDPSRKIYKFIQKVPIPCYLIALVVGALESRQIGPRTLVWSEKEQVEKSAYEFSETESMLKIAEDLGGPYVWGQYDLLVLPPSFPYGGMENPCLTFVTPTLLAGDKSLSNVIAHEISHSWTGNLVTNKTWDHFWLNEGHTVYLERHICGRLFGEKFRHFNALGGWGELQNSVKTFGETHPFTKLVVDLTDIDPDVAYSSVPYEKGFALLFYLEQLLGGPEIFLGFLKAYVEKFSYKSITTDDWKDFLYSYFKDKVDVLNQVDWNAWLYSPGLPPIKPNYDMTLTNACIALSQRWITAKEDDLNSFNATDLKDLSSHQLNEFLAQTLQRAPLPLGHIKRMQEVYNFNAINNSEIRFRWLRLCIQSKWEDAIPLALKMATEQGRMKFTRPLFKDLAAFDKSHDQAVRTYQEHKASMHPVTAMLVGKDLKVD

[2] = test system: experimental acquired lymphedema; settings: cited from earlier work
human lymphedema = settings: adult lymphedema subjects, open-label and placebo-controlled pilot; cited from earlier work
[3] = test system: lymphedema of the lower limb; settings: Phase 2, lymphedema of the lower limb; cited from earlier work
aminopeptidases = settings: Bhatt et al. (2017); Inoi et al. (1995); cited from earlier work
LTA4H aminopeptidase [4] = target: T1, LTA4H aminopeptidase; settings: Bhatt et al. (2017); Inoi et al. (1995); cited from earlier work

T1 sequence (P09960 whole entry): as above

SMILES	IC50 (LTA4H aminopeptidase [1])	also measured
COc1cc(O)cc(CCc2ccccc2O)c1 [Compound 9]	> 100 µM	–
O=C(Cc1ccc(O)cc1)c1ccc(O)cc1O [Compound 10]	> 100 µM	–
COc1cc(O)cc(CCc2cccc(O)c2)c1 [Compound 8]	> 100 µM	–
O=c1c(-c2ccc(O)cc2)coc2c(O)cccc12 [Compound 12]	62.7 ± 13.3 µM	IC50 (LTA4H epoxide hydrolase): 7.3 ± 0.8 µM
Cc1ccc2c(=O)c(-c3ccc(O)cc3)coc2c1O [Compound 15]	69.2 ± 10.9 µM	–
CCOc1cc(O)cc(CCc2ccc(O)cc2)c1 [Compound 7]	> 100 µM	–
COc1cc(O)cc(CCc2ccc(O)cc2)c1 [Compound 6]	> 100 µM	–
CC(=O)Oc1ccc(/C=C/c2cc(OC(C)=O)cc(OC(C)=O)c2)cc1 [Compound 4]	> 100 µM	–
O=c1c(-c2ccc(O)cc2)coc2cc(O)ccc12 [Compound 11]	> 100 µM	–
O=c1c(-c2ccccc2)coc2cc(O)ccc12 [Compound 13]	> 100 µM	–
O=c1c(-c2ccc(O)cc2)coc2c3c(ccc12)OCO3 [Compound 14]	20.6 ± 3.3 µM	IC50 (LTA4H epoxide hydrolase): 20.6 ± 24 µM
CC(C(=O)O)c1cccc(C(=O)c2ccccc2)c1 (stereo not shown) [ketoprofen]	–	lymphedema disease burden ([2]; mice, systemic administration): documented reversal of disease burden; also recorded: disease burden was reversed; skin thickness and cutaneous histopathology (human lymphedema): salutary effects; also recorded: improve skin thickness
CC(C)C[C@H](NC(=O)[C@@H](O)[C@H](N)Cc1ccccc1)C(=O)O [Ubenimex]	–	improvement in skin thickness, limb volume and bioimpedance over placebo [3]: did not identify an improvement; edema, lymphatic function, lymphatic architecture ([2]; murine model of lymphedema): reversed edema, improved lymphatic function, and restored lymphatic architecture; aminopeptidase inhibition spectrum (aminopeptidases): broad spectrum aminopeptidase inhibitor; LTA4H selectivity (LTA4H aminopeptidase [4]): non-selective LTA4H inhibitor
